Measurements: patent US8722580B2, “Agent for inhibiting cytokinin signaling” (Sumitomo Chemical Company, Limited, priority 2006, dated 2014)

Key:
rice [1] = experiment: Root growth-promoting activity by rice seed treatment (Example 12); assay type: in vivo, Oriza sativa L. japonica; details: rice seeds treated with 10,000 ppm acetone solution; 4 days dark at 30° C. then 35 days greenhouse
Protocol: With respect to the chemical substance Ic3-1 and the chemical substance Ic7-1 (which inhibit intracellular signaling from a plant-derived cytokinin receptor of a cell) selected in Example 7, a main root-growth promoting activity induced by seed treatment was evaluated using rice (Oriza sativa L. japonica). The chemical substance was dissolved in acetone to prepare a 10,000 ppm solution. The acetone chemical substance solution (300 μl) thus prepared was put in an eppendorf tube. Then, 15 seeds were put in the eppendorf tube. The resulting mixture was mixed for about 30 seconds. The seeds thus chemical-treated were spread and dried on a filter paper.
About 820 ml of culture soil was placed in a plastic container (120 mm in length, 97 mm in height) with a hole in the bottom. The chemical-treated seeds were sowed in the plastic container (15 seeds per plastic container). The seeds were cultivated in a dark place at 30° C. for 4 days and then cultivated in a greenhouse for 35 days. Roots of the plant thus cultivated were removed and the soil adhered to the plant was washed away, followed by freeze-drying. Then, the weight of roots after freeze-drying was measured. A test was repeated 3 times for each treatment section, and an average was determined.

Arabidopsis thaliana [2] = experiment: Root growth-promoting activity test (Example 9); assay type: in vivo; details: Arabidopsis thaliana, 240 h, main root length vs control section, 22° C., 10 days; for activity at 5 ppm: test final concentration 5 ppm (concentration with highest root growth rate); for activity at 2.5 ppm: test final concentration 2.5 ppm (concentration with highest root growth rate)
Procedure, shortened: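 Compounds at 0.001–10 ppm final (added in DMSO) were mixed into Enshi medium, and Arabidopsis thaliana seeds were cultured in it for 10 days at 22° C under light. Root growth rate (%) is the treated mean main-root length divided by the control mean, from eight repeats.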

cytokinin receptor CRE1 = target: T1, cytokinin receptor CRE1 (Arabidopsis thaliana, UniProt Q9C5U0, S567G/T1018A); experiment: Inhibition of intracellular signaling from plant-derived cytokinin receptor, growth of transformed yeast cell TM182-CRE1; assay type: cell-based; details: for inhibition at 2 ppm: read-out: Activity (%) of test substance for inhibiting intracellular signaling from plant-derived cytokinin receptor of cell; for Relative growth rate (%) in test section of test substance to control section, Transformed cell TM182-CRE1: 30° C., 24 hours, turbidity OD 600
T1 construct: expressed in transfected cells; host or cells: Saccharomyces cerevisiae TM182 (sln1Δ) transformed with p415CYC-CRE1
Procedure, shortened: (§1)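 Relative growth % is derived from blank-corrected OD600 against DMSO wells after 24 h at 30° C, with inhibition given as 100 minus that value. Cells were set to OD600=0.1 with 0.6 ppm trans-zeatin and 2 ppm test substance: CRE1 strain in DOLU+Glu, p415CYC1 toxicity control in DOLU+Gal.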

[3] = test system: transformed cell TM182-p415CYC1; experiment: Control growth test with transformed yeast cell TM182-p415CYC1 (toxicity to yeast); assay type: cell-based; details: trans-zeatin 0.6 ppm; chemical substance 2 ppm; 30° C., 24 hours; turbidity OD 600
Procedure, shortened: as §1

Arabidopsis thaliana [4] = experiment: Root growth-promoting activity test (Example 22); assay type: in vivo; details: main root length vs control section, 22° C., 10 days
Protocol: Enshi standard medium having the following composition (see Table 18) was prepared. To cluster tubes was dispensed each 4 μl of a solution of a chemical substance in DMSO to a final concentration of 0.001 ppm to 10 ppm, and then, was dispensed each 600 μl of the sterilized Enshi standard medium. Then the resulting solution was well mixed. In each of the cluster tubes, 10-20 seeds of Arabidopsis thaliana were sown, and cultured at 22° C. for 10 days in the light. Then, the length of main roots (average main roots) generated from the seeds of Arabidopsis thaliana was measured. An average of eight repeats was determined, and a root growth rate was determined according to the following equation.
Root growth rate (%)=(Average main root length in chemical substance-treated section)/(Average main root length in control section)×100
Enshi standard medium determined having the following composition (Table 18) was prepared. A DMSO solution of a chemical substance was dispensed by 4 μl to cluster tubes to a final concentration of 0.001 ppm to 10 ppm and the sterilized Enshi standard medium was dispensed by 600 μl and then the resulting solution was well mixed. 10-20 seeds of A. thaliana per cluster tube were sown in the cluster tubes. After culture at 22° C. for 10 days in bright light, the length of main roots (average main roots) took from seeds of A. thaliana was measured. An average of eight repeats was determined and the root growth rate was determined.
Root growth rate (%)=(Average main root length of chemical substance-treated section)/(Average main root length of control section)×100

rice [5] = experiment: Root growth-promoting activity using rice, seed growth pouch (Example 11); assay type: in vivo, Oriza sativa L. japonica; details: 25° C., 7 days
Protocol: With respect to the chemical substance Ic3-1 and the chemical substance Ic7-1 (which inhibit intracellular signaling from a plant-derived cytokinin receptor of a cell) selected in Example 7, a main root-growth promoting activity was evaluated using rice (Oriza sativa L. japonica). Aqueous solutions of the chemical substance having different concentrations (10 ppm, 25 ppm, each containing 0.1% DMSO) were prepared. A naper towel was impregnated with 17 ml of the chemical solution, wherein the heavy paper was placed in a seed growth pouch for observation of root growth (177 mm×163 mm, manufactured by Daiki Rika Kogyo Co., Ltd.), and 3 rice seeds were sowed on the paper towel. The pouch was put in a plastic container, and then sealed. After culture in the light at 25° C. for 7 days, the length of a main root was measured. An average of 3 repeats was determined and a root growth rate was determined by the following equation. Root growth rate (%)=(Average main root length in chemical substance-treated section)/(Average main root length in control section)×100−100

[6] = test system: hypocotyl of Arabidopsis thaliana; experiment: Plant differentiation-promoting activity, adventitious root formation from hypocotyl (Example 13); assay type: in vivo, Arabidopsis thaliana Columbia; details: agar medium with trans-zeatin 0.01 ppm; test sections with final concentration 6 ppm or 2 ppm
Protocol: With respect to the chemical substance Ic3-1 and the chemical substance Ic7-1 (which inhibit intracellular signaling from a plant-derived cytokinin receptor of a cell) selected in Example 7, a plant differentiation-promoting activity was evaluated by examining an adventitious root formation activity using an hypocotyl of Arabidopsis thaliana Columbia.
First, an agar medium for sowing Arabidopsis thaliana was prepared. The agar medium contains, as components per 1 liter of an aqueous solution, 1 parcel of mixed salts for Murashige-Scoog plant medium (Wako Pure Chemical Industries, Ltd.) for 1 liter, 10 g of sucrose, 10 ml of an aqueous 5% MES (2-(N-Morpholino)ethanesulfonic acid) solution adjusted to pH 5.7 with potassium hydroxide, 100 mg of inositol, 1 ml of vitamins stock solution (10 g of thiamine hydrochloride, 1 g of pyridoxine hydrochloride, and 1 g of nicotinic acid per 1 liter of an aqueous solution) and 8 g of agar. Then, the agar medium was subjected to autoclave at 120° C. for 20 minutes, dispensed to circular petri dishes, and then solidified.
Seeds of Arabidopsis thaliana (about 25 μl) were put in a 1.5 ml tube. Thereto was added 1 ml of a 10-fold diluted solution of a sodium hypochlorite solution (Nacalai Tesque) with sterilized distilled water. The seed were sterilized while stirring for about 1 minute with a tube mixer (TOMY, MT-360, MIXING SPEED10). […]

[7] = trans-zeatin 0.6 ppm, chemical substance 2 ppm

T1 sequence (Q9C5U0 24-1080 S567G/T1018A): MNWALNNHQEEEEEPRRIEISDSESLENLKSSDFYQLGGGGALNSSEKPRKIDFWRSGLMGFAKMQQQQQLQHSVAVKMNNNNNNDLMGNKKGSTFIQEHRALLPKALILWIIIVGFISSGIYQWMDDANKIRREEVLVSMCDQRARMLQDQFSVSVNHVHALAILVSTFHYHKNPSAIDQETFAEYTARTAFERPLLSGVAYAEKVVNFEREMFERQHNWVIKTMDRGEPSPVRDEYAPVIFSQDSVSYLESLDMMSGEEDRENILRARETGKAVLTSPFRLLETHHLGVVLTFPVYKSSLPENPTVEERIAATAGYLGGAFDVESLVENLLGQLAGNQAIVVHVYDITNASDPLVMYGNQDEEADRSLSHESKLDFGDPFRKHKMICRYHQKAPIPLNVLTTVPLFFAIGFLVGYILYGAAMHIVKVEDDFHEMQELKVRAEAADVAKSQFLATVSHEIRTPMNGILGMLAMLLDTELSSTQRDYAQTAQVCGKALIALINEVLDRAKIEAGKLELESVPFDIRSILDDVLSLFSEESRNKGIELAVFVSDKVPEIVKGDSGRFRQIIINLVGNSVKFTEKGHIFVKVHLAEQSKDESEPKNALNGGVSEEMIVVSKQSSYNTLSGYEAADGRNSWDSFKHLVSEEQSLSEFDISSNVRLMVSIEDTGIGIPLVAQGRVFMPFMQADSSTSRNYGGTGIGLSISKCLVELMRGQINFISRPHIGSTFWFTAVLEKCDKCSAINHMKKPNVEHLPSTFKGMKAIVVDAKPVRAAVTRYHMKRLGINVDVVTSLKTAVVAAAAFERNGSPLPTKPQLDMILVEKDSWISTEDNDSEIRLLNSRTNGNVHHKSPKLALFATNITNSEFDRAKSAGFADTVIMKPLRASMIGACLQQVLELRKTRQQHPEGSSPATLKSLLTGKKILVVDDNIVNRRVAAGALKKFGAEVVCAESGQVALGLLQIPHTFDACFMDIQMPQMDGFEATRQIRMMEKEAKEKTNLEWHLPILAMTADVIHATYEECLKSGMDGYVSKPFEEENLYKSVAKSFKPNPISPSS

SMILES | activity at 5 ppm (Arabidopsis thaliana [2]) | inhibition at 2 ppm (cytokinin receptor CRE1) | Relative growth rate (%) in test section of test substance to control section, Transformed cell TM182-CRE1 (cytokinin receptor CRE1; [7]) | Relative growth rate (%) in test section of test substance to control section, Transformed cell TM182-p415CYC1 [3] | melting point | also measured
O=C(O)Cc1c[nH]c2ccccc12 [IAA, reference compound] | – | – | – | – | – | dry weight of roots per plant, % of the control section (rice [1]): 87%
Clc1ccc2nc(Cl)nc(-c3ccccc3)c2c1 [Ia1-3, 2,6-dichloro-4-phenylquinazoline] | 138% | 94.5% | 5.5% | 113.9% | 166.2 °C | –
CC(=O)SCCNc1nc(-c2ccccc2)c2cc(Cl)ccc2n1 [Ic3-14, 2-(2-acetylthioethylamino)-6-chloro-4-phenylquinazoline] | – | – | – | – | 128.9 °C | activity at 2.5 ppm (Arabidopsis thaliana [2]): 126%
Clc1ccc2nc(NCCSSCCNc3nc(-c4ccccc4)c4cc(Cl)ccc4n3)nc(-c3ccccc3)c2c1 [Ic3-15, bis[2-(6-chloro-4-phenyl-2-quinazolinyl)aminoethyl]disulfide] | 131% | – | – | – | 159.2 °C | –
Clc1ccc2nc(NCc3ccco3)nc(-c3ccccc3)c2c1 [Ic3-16, 6-chloro-2-furfurylamino-4-phenylquinazoline] | 155% | 96.8% | 3.2% | 97.0% | 142 °C | Root growth-promoting activity (root growth rate) (Arabidopsis thaliana [4]; test final concentration 5 ppm (highest root growth rate)): 155.3%
CN(N)c1nc(-c2ccccc2)c2cc(Cl)ccc2n1 [Ic3-27, 6-chloro-2-(1-methylhydrazino)-4-phenylquinazoline] | – | 97.7% | 2.3% | 107.4% | 155.9 °C | activity at 2.5 ppm (Arabidopsis thaliana [2]): 128%
CONc1nc(-c2ccccc2)c2cc(Cl)ccc2n1 [Ic3-32, 6-chloro-2-methoxyamino-4-phenylquinazoline] | 123% | 95.5% | 4.5% | 89.2% | 173.9 °C | –
CCOC(=O)CNc1nc(-c2ccccc2)c2cc(Cl)ccc2n1 [Ic3-33, 6-chloro-2-ethoxycarbonylmethylamino-4-phenylquinazoline] | 124% | 99% | 1.0% | 114.6% | 146.1 °C | Root growth-promoting activity (root growth rate) (Arabidopsis thaliana [4]; test final concentration 10 ppm (highest root growth rate)): 140.4%
O=CNc1nc(-c2ccccc2)c2cc(Cl)ccc2n1 [Ic3-35, 6-chloro-2-formamido-4-phenylquinazoline] | – | – | – | – | 252.1 °C | activity at 10 ppm (Arabidopsis thaliana [2]; test final concentration 10 ppm (concentration with highest root growth rate)): 144%; Root growth-promoting activity (root growth rate) (Arabidopsis thaliana [4]; test final concentration 2.5 ppm (highest root growth rate)): 134.0%
O=[N+]([O-])c1ccc2nc(NCCCO)nc(-c3ccccc3)c2c1 [Ic7-1] | – | – | 6.7% | 115.8% | – | Activity (%) of test substance for inhibiting intracellular signaling from plant-derived cytokinin receptor of cell (cytokinin receptor CRE1; trans-zeatin 0.6 ppm, chemical substance 2 ppm, = 100 − relative growth rate of TM182-CRE1): 93.3%; main root growth increase relative to the control section (rice [5]; 10 ppm): 17%; main root growth increase relative to the control section (rice [5]; 25 ppm): 19%; adventitious root formation from the hypocotyl portion [6]: adventitious roots were formed; dry weight of roots per plant, % of the control section (rice [1]): 126%
OCCSc1nc(-c2ccccc2)c2cc(Cl)ccc2n1 [Ie3-1, 6-chloro-2-(2-hydroxyethylthio)-4-phenylquinazoline] | 121% | 97.7% | 2.3% | 110.7% | 124.4 °C | –
